Data from the NIST ThermoML archive (doi:10.1016/j.jct.2005.03.020).

Tests used:
[1] = 298.15 K; 101.33 kPa; Liquid
[2] = refractive index (Na D-line) (dimensionless); conditions: 298.15 K; 101.33 kPa; Liquid; Standard Abbe refractometry
[3] = xn = mol fraction of the nth substance listed; conditions: 298.15 K, 101.33 kPa, Liquid
[4] = excess molar enthalpy (molar enthalpy of mixing); xn = mol fraction of the nth substance listed; conditions: 298.15 K, 101.33 kPa, Liquid

ClCCCl [1,2-dichloroethane]
Conditions	mass density [kg/m3]	refractive index
[1]	1245.65	–
[2]	–	1.442

ClCCCCl [1,3-dichloropropane]
Conditions	mass density [kg/m3]	refractive index
[1]	1178.34	–
[2]	–	1.4455

ClCCCCCl [1,4-dichlorobutane]
Conditions	mass density [kg/m3]	refractive index
[1]	1133.32	–
[2]	–	1.452

ClCCCCCCl [1,5-dichloropentane]
Conditions	mass density [kg/m3]	refractive index
[1]	1095.27	–
[2]	–	1.454

ClCCCCCCl [1,5-dichloropentane] + CCCC(=O)OCC
Conditions	excess molar enthalpy [kcal/mol]	mass density [kg/m3]
[3], x2 = 0.0569	–	1082.35
[3], x2 = 0.1136	–	1069.48
[3], x2 = 0.171	–	1056.53
[3], x2 = 0.2286	–	1043.61
[3], x2 = 0.2917	–	1029.5
[3], x2 = 0.3489	–	1016.71
[3], x2 = 0.4084	–	1003.45
[3], x2 = 0.4653	–	990.76
[3], x2 = 0.5243	–	977.72
[3], x2 = 0.5825	–	964.82
[3], x2 = 0.6411	–	951.9
[3], x2 = 0.7595	–	925.89
[3], x2 = 0.8188	–	912.92
[3], x2 = 0.8799	–	899.6
[3], x2 = 0.9403	–	886.46
[4], x2 = 0.0571	-0.00196	–
[4], x2 = 0.1213	-0.00643	–
[4], x2 = 0.1884	-0.012	–
[4], x2 = 0.2532	-0.0176	–
[4], x2 = 0.3155	-0.0235	–
[4], x2 = 0.3746	-0.0297	–
[4], x2 = 0.4289	-0.0361	–
[4], x2 = 0.478	-0.0416	–
[4], x2 = 0.5235	-0.0442	–
[4], x2 = 0.5576	-0.0456	–
[4], x2 = 0.5639	-0.0459	–
[4], x2 = 0.6129	-0.0461	–
[4], x2 = 0.6726	-0.0449	–
[4], x2 = 0.736	-0.0402	–
[4], x2 = 0.8047	-0.0329	–
[4], x2 = 0.8728	-0.0236	–
[4], x2 = 0.9406	-0.0114	–

ClCCCCCCl [1,5-dichloropentane] + CCCCC(=O)OCC
Conditions	excess molar enthalpy [kcal/mol]	mass density [kg/m3]
[3], x2 = 0.1036	–	1068.61
[3], x2 = 0.1561	–	1055.46
[3], x2 = 0.2082	–	1042.59
[3], x2 = 0.2623	–	1029.48
[3], x2 = 0.3179	–	1016.24
[3], x2 = 0.3785	–	1002.01
[3], x2 = 0.4369	–	988.54
[3], x2 = 0.4943	–	975.55
[3], x2 = 0.5534	–	962.34
[3], x2 = 0.6141	–	949.06
[3], x2 = 0.6755	–	935.8
[3], x2 = 0.7367	–	922.8
[3], x2 = 0.8008	–	909.43
[3], x2 = 0.8658	–	896.13
[3], x2 = 0.9318	–	882.79
[4], x2 = 0.0481	-0.00244	–
[4], x2 = 0.1066	-0.00762	–
[4], x2 = 0.1663	-0.0128	–
[4], x2 = 0.228	-0.0206	–
[4], x2 = 0.2876	-0.0279	–
[4], x2 = 0.3438	-0.0357	–
[4], x2 = 0.3973	-0.0434	–
[4], x2 = 0.416	-0.0465	–
[4], x2 = 0.4433	-0.0493	–
[4], x2 = 0.4786	-0.0512	–
[4], x2 = 0.5288	-0.0522	–
[4], x2 = 0.5848	-0.0517	–
[4], x2 = 0.6478	-0.05	–
[4], x2 = 0.7165	-0.0433	–
[4], x2 = 0.7867	-0.0365	–
[4], x2 = 0.8597	-0.0264	–
[4], x2 = 0.9325	-0.0137	–

ClCCCCCCCl [1,6-dichlorohexane]
Conditions	mass density [kg/m3]	refractive index
[1]	1063.72	–
[2]	–	1.4555

ClCCCCCCCl [1,6-dichlorohexane] + CCCC(=O)OCC
Conditions	excess molar enthalpy [kcal/mol]	mass density [kg/m3]
[3], x2 = 0.0651	–	1052.45
[3], x2 = 0.1277	–	1041.56
[3], x2 = 0.1889	–	1030.69
[3], x2 = 0.2509	–	1019.59
[3], x2 = 0.3119	–	1008.53
[3], x2 = 0.3711	–	997.66
[3], x2 = 0.4384	–	985.13
[3], x2 = 0.4971	–	974.07
[3], x2 = 0.5548	–	963.05
[3], x2 = 0.6131	–	951.77
[3], x2 = 0.67	–	940.63
[3], x2 = 0.7263	–	929.48
[3], x2 = 0.7824	–	918.28
[3], x2 = 0.8369	–	907.25
[3], x2 = 0.8922	–	895.96
[3], x2 = 0.9457	–	884.85
[4], x2 = 0.051	-0.000789	–
[4], x2 = 0.1085	-0.0022	–
[4], x2 = 0.1746	-0.00564	–
[4], x2 = 0.2423	-0.0101	–
[4], x2 = 0.3076	-0.0158	–
[4], x2 = 0.3688	-0.0202	–
[4], x2 = 0.4325	-0.0254	–
[4], x2 = 0.4782	-0.0283	–
[4], x2 = 0.525	-0.0321	–
[4], x2 = 0.5779	-0.0341	–
[4], x2 = 0.6383	-0.0346	–
[4], x2 = 0.7034	-0.0313	–
[4], x2 = 0.7744	-0.0254	–
[4], x2 = 0.8524	-0.0179	–
[4], x2 = 0.9323	-0.00949	–

ClCCCCCCCl [1,6-dichlorohexane] + CCCCC(=O)OCC
Conditions	excess molar enthalpy [kcal/mol]	mass density [kg/m3]
[3], x2 = 0.0538	–	1053.1
[3], x2 = 0.1126	–	1041.51
[3], x2 = 0.1693	–	1030.36
[3], x2 = 0.2307	–	1018.34
[3], x2 = 0.287	–	1007.32
[3], x2 = 0.3464	–	995.69
[3], x2 = 0.5231	–	961.26
[3], x2 = 0.5825	–	949.74
[3], x2 = 0.701	–	926.81
[3], x2 = 0.7586	–	915.69
[3], x2 = 0.8777	–	892.8
[3], x2 = 0.94	–	880.88
[4], x2 = 0.0607	-0.00433	–
[4], x2 = 0.127	-0.00896	–
[4], x2 = 0.1968	-0.0146	–
[4], x2 = 0.264	-0.0205	–
[4], x2 = 0.3289	-0.0265	–
[4], x2 = 0.389	-0.0331	–
[4], x2 = 0.4445	-0.0397	–
[4], x2 = 0.4953	-0.0439	–
[4], x2 = 0.5409	-0.0448	–
[4], x2 = 0.5672	-0.045	–
[4], x2 = 0.5813	-0.0449	–
[4], x2 = 0.6117	-0.0433	–
[4], x2 = 0.6723	-0.0395	–
[4], x2 = 0.7364	-0.0342	–
[4], x2 = 0.8027	-0.0278	–
[4], x2 = 0.8717	-0.0198	–
[4], x2 = 0.9373	-0.0107	–

ClCCCCCCCl [1,6-dichlorohexane] + CCOC(C)=O
Conditions	excess molar enthalpy [kcal/mol]	mass density [kg/m3]
[3], x2 = 0.0827	–	1053.91
[3], x2 = 0.164	–	1043.7
[3], x2 = 0.2386	–	1033.83
[3], x2 = 0.3112	–	1023.72
[3], x2 = 0.3783	–	1013.89
[3], x2 = 0.4437	–	1003.86
[3], x2 = 0.5071	–	993.65
[3], x2 = 0.5654	–	983.86
[3], x2 = 0.6221	–	973.92
[3], x2 = 0.6754	–	964.14
[3], x2 = 0.7291	–	953.86
[3], x2 = 0.7774	–	944.24
[3], x2 = 0.824	–	934.61
[3], x2 = 0.8726	–	924.1
[3], x2 = 0.9134	–	914.94
[3], x2 = 0.9552	–	905.22
[4], x2 = 0.0931	0.00774	–
[4], x2 = 0.1859	0.0127	–
[4], x2 = 0.2737	0.0174	–
[4], x2 = 0.3572	0.0197	–
[4], x2 = 0.4323	0.0181	–
[4], x2 = 0.4967	0.0149	–
[4], x2 = 0.5544	0.0101	–
[4], x2 = 0.6025	0.00755	–
[4], x2 = 0.6355	0.0054	–
[4], x2 = 0.7013	0.00318	–
[4], x2 = 0.769	0.00105	–
[4], x2 = 0.8355	-0.00227	–
[4], x2 = 0.9006	-0.00363	–
[4], x2 = 0.9593	-0.00163	–
